Measured values taken from ChEMBL document CHEMBL4311943, “3-[(1S,2S,3R)-2,3-Difluoro-1-hydroxy-7-methylsulfonylindan-4-yl]oxy-5-fluorobenzonitrile (PT2977), a Hypoxia-Inducible Factor 2α (HIF-2α) Inhibitor for the Treatment of Clear Cell Renal Cell Carcinoma” (J Med Chem, 2019).
The source made the active and inactive calls. No cut-off for these calls is given here.

Columns and labels:
[1] = target: fMet-Leu-Phe receptor (Homo sapiens) (UniProt P21462); assay: Activity at human FPR1 receptor at 10 uM
[2] = target: Hydroxycarboxylic acid receptor 2 (Homo sapiens) (UniProt Q8TDS4); assay: Activity at human GPR109A receptor at 10 uM
[3] = Toxicity in patient with advanced solid tumor assessed as anemia at 20 to 240 mg, po administered once daily; type: organism-based; details: human, in vivo
[4] = Protein binding in human plasma at 10 uM measured after 4 hrs by LC-MS/MS analysis; type: ADME, cell-free; details: read-out: PPB (converted)
[5] = target: T1, UDP-glucuronosyltransferase 2B17 (Homo sapiens, UniProt O75795); assay: Substrate activity at recombinant human UGT2B17 expressed in baculovirus infected insect cell membranes assessed as enzyme-mediated glucuronidation by measuring Vmax per mg protein at 50 uM preincubated for 5 mins followed by UDPGA addition and measured after 60 mins by LC-MS/MS analysis; type: ADME; details: 1 h
T1 sequence (O75795 whole entry): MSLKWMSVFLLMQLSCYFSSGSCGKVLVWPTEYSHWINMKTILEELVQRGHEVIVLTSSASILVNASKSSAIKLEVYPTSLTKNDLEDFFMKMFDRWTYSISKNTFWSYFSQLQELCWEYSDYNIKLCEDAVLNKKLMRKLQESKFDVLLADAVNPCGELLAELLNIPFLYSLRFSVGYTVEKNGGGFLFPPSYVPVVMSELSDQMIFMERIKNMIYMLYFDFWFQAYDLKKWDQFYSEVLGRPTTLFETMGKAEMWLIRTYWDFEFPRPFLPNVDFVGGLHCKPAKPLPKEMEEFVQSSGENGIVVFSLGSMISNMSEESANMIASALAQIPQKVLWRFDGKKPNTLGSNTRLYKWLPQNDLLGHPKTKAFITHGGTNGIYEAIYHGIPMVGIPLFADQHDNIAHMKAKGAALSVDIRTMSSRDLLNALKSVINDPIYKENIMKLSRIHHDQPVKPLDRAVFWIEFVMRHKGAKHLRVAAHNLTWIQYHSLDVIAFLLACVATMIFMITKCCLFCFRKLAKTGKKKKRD

[6] = target: T2, UGT2B17 (Homo sapiens, UniProt O75795); assay: Substrate activity at UGT2B17 in human intestinal microsomes assessed as enzyme-mediated glucuronidation by measuring Km at 2 to 1000 uM preincubated for 5 mins followed by UDPGA addition and measured after 60 mins by LC-MS/MS analysis; type: ADME, Intestine
T2 sequence (O75795 whole entry): T1 sequence (O75795 whole entry)

[7] = target: Cytochrome P450 2C8 (Homo sapiens, UniProt P10632); assay: Inhibition of CYP2C8 in human liver microsomes up to 50 uM using amodiaquine as substrate measured after 10 mins in presence of NADPH by LC-MS/MS analysis; type: ADME
[8] = target: Cytochrome P450 2D6 (Homo sapiens, UniProt P10635); assay: Inhibition of CYP2D6 in human liver microsomes up to 50 uM using dextromethorphan as substrate measured after 10 mins in presence of NADPH by LC-MS/MS analysis; type: ADME
[9] = target: Cytochrome P450 3A4 (Homo sapiens, UniProt P08684); assay: Inhibition of CYP3A4 in human liver microsomes up to 50 uM using midazolam as substrate measured after 10 mins in presence of NADPH by LC-MS/MS analysis; type: ADME
[10] = Clearance in CD-1 mouse at 3 mg/kg, iv by UPLC-MS analysis; type: ADME, organism-based; details: in vivo
[11] = Dose normalized AUClast in CD-1 mouse at 10 mg/kg, po administered via gavage by UPLC-MS analysis; type: ADME, organism-based; details: in vivo
[12] = Half life in patient with advanced solid tumor at 40 mg, po administered once daily measured on day 15; type: ADME, organism-based; details: human, in vivo
[13] = AUClast in patient with advanced solid tumor at 80 mg, po administered once daily measured on day 15; type: ADME, organism-based; design: dose 80 mg, route oral, time 0 - last; details: human, in vivo
[14] = Plasma concentration in patient with advanced solid tumor at 80 mg, po administered once daily measured on day 15 after 24 hrs; type: ADME, organism-based; details: human
[15] = Plasma concentration in patient with advanced solid tumor at 240 mg, po administered once daily measured on day 15 after 24 hrs; type: ADME, organism-based; details: human
[16] = target: Alpha-1A adrenergic receptor (Homo sapiens) (UniProt P35348); assay: Activity at human alpha1A receptor at 10 uM
[17] = target: 5'-AMP-activated protein kinase catalytic subunit alpha-1 (Homo sapiens) (UniProt Q13131); assay: Activity at human AMPKalpha1 at 10 uM
[18] = target: Urotensin-2 receptor (Homo sapiens) (UniProt Q9UKP6); assay: Activity at human GPR14 receptor at 10 uM
[19] = target: 5-hydroxytryptamine receptor 2B (Homo sapiens) (UniProt P41595); assay: Activity at human 5-HT2B receptor at 10 uM
[20] = target: 5-hydroxytryptamine receptor 1A (Homo sapiens) (UniProt P08908); assay: Activity at human 5-HT1A receptor at 10 uM
[21] = target: 5-hydroxytryptamine receptor 2A (Homo sapiens) (UniProt P28223); assay: Activity at human 5-HT2A receptor at 10 uM
[22] = target: Prostaglandin E2 receptor EP3 subtype (Homo sapiens) (UniProt P43115); assay: Activity at human Prostanoid EP3 receptor at 10 uM
[23] = target: Prostaglandin D2 receptor (Homo sapiens) (UniProt Q13258); assay: Activity at human Prostanoid DP receptor at 10 uM
[24] = target: Prostaglandin E2 receptor EP2 subtype (Homo sapiens) (UniProt P43116); assay: Activity at human Prostanoid EP2 receptor at 10 uM
[25] = target: Prokineticin receptor 1 (Homo sapiens) (UniProt Q8TCW9); assay: Activity at human PK1 receptor at 10 uM
[26] = target: Gonadotropin-releasing hormone receptor (Homo sapiens) (UniProt P30968); assay: Activity at human GNRH at 10 uM
[27] = target: D(1B) dopamine receptor (Homo sapiens) (UniProt P21918); assay: Activity at human D5 receptor at 10 uM
[28] = target: C-X-C chemokine receptor type 1 (Homo sapiens) (UniProt P25024); assay: Activity at human CXCR1 receptor at 10 uM
[29] = target: C-C chemokine receptor type 1 (Homo sapiens) (UniProt P32246); assay: Activity at human CCR1 receptor at 10 uM
[30] = target: Type-1 angiotensin II receptor (Homo sapiens) (UniProt P30556); assay: Activity at human AT1 receptor at 10 uM
[31] = species: Homo sapiens; assay: Activity at human BB2 receptor at 10 uM
[32] = target: Insulin receptor (Homo sapiens) (UniProt P06213); assay: Activity at human IR at 10 uM
[33] = target: Serine/threonine-protein kinase STK11 (Homo sapiens) (UniProt Q15831); assay: Activity at human LKB1 at 10 uM
[34] = target: Mitogen-activated protein kinase 1 (Homo sapiens) (UniProt P28482); assay: Activity at human MAPK2 at 10 uM
[35] = target: Protein kinase C iota type (Homo sapiens) (UniProt P41743); assay: Activity at human PKCiota at 10 uM
[36] = target: Rho-associated protein kinase 2 (Homo sapiens) (UniProt O75116); assay: Activity at human ROCK2 at 10 uM

Chain of 5-hydroxytryptamine receptor 1A (Homo sapiens) (P08908 whole entry): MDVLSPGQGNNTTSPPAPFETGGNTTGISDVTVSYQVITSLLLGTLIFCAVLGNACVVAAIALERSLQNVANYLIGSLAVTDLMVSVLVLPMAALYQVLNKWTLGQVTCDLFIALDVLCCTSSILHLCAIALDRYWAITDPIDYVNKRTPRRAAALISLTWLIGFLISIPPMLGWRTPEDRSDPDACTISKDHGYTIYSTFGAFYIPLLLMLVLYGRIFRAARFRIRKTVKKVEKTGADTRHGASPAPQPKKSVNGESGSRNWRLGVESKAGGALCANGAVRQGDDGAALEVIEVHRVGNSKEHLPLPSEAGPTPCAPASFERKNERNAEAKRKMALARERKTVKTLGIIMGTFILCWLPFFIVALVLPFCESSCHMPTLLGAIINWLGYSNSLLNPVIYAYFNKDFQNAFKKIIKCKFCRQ
Chain of Protein kinase C iota type (Homo sapiens) (P41743 whole entry): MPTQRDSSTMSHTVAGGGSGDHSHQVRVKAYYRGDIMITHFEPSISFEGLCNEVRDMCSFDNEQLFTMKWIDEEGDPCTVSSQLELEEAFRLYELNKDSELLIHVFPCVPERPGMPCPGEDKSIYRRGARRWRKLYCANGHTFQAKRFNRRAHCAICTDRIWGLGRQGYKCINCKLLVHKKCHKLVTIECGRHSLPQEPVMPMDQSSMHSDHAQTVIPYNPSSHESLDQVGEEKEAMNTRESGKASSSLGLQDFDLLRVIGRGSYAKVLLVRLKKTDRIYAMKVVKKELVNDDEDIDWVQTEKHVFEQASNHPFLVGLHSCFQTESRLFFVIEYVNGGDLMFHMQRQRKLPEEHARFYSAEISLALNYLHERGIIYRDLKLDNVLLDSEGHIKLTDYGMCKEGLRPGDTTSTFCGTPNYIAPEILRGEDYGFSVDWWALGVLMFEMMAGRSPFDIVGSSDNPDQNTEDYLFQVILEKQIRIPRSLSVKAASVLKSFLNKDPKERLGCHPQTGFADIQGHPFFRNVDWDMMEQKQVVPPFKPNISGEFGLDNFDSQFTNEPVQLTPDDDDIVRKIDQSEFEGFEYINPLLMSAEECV
Chain of Alpha-1A adrenergic receptor (Homo sapiens) (P35348 whole entry): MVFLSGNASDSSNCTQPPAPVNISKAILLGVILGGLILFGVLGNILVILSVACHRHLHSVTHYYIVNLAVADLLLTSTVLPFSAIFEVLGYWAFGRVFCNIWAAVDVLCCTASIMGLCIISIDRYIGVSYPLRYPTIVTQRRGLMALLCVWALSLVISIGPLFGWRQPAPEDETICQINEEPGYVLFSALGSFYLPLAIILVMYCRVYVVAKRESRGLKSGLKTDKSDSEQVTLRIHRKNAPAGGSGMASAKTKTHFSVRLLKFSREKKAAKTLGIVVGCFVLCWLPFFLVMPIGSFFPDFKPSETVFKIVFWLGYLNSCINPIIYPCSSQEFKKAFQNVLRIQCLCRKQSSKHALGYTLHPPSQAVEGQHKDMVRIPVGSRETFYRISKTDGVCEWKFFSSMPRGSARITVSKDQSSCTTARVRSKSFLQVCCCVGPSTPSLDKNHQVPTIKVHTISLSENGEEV
Chain of 5-hydroxytryptamine receptor 2A (Homo sapiens) (P28223 whole entry): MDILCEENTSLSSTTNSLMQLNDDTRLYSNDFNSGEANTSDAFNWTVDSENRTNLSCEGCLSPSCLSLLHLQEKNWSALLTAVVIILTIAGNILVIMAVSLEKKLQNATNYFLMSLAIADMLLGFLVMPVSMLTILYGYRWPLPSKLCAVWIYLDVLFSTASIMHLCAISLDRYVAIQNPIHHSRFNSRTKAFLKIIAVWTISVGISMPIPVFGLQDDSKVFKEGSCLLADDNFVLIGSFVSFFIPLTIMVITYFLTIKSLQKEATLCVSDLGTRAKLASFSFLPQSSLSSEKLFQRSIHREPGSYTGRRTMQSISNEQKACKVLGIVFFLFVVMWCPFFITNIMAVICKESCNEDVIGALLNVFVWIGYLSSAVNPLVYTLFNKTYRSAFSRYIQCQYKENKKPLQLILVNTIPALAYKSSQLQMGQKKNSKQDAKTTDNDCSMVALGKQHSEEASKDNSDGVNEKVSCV
Chain of Type-1 angiotensin II receptor (Homo sapiens) (P30556 whole entry): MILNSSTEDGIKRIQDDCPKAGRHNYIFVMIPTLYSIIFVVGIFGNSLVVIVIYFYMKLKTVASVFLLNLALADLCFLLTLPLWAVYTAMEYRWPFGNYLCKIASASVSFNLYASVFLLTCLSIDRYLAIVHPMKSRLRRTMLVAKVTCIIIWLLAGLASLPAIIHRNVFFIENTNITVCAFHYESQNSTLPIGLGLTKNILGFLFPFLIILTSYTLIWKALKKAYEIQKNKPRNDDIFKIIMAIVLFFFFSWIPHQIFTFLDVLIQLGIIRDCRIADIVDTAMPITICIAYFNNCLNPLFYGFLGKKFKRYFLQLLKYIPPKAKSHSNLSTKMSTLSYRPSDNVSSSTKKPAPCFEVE
Chain of Prostaglandin E2 receptor EP3 subtype (Homo sapiens) (P43115 whole entry): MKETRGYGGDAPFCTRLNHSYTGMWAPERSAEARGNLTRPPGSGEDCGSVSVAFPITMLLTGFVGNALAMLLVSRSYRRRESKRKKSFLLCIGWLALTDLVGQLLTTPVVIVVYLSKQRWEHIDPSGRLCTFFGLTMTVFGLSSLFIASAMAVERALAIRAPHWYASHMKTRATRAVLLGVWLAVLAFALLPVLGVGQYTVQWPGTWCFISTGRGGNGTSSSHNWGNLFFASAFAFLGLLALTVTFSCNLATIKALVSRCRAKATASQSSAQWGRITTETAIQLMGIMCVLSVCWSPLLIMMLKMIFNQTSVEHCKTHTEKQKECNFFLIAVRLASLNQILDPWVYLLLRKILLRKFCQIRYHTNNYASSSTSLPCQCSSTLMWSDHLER
Chain of Prostaglandin D2 receptor (Homo sapiens) (Q13258 whole entry): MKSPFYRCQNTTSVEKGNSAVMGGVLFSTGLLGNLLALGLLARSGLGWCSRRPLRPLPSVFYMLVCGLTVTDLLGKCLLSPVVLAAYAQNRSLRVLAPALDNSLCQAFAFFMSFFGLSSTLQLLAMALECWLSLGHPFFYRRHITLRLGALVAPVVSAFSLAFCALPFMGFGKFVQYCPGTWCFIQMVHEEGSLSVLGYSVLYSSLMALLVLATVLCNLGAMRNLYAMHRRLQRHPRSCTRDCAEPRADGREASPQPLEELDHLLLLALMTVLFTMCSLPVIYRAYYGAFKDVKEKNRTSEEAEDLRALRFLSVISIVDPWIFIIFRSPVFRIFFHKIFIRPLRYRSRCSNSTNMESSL
Chain of Gonadotropin-releasing hormone receptor (Homo sapiens) (P30968 whole entry): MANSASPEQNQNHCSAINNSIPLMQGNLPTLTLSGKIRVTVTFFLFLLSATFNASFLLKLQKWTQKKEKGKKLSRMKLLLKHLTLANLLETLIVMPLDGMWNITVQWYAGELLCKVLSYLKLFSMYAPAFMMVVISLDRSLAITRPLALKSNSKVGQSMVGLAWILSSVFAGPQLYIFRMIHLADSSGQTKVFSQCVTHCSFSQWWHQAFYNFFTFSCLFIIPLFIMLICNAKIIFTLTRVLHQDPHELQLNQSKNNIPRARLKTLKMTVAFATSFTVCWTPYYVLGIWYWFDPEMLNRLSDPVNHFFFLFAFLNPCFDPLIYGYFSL
Chain of 5-hydroxytryptamine receptor 2B (Homo sapiens) (P41595 whole entry): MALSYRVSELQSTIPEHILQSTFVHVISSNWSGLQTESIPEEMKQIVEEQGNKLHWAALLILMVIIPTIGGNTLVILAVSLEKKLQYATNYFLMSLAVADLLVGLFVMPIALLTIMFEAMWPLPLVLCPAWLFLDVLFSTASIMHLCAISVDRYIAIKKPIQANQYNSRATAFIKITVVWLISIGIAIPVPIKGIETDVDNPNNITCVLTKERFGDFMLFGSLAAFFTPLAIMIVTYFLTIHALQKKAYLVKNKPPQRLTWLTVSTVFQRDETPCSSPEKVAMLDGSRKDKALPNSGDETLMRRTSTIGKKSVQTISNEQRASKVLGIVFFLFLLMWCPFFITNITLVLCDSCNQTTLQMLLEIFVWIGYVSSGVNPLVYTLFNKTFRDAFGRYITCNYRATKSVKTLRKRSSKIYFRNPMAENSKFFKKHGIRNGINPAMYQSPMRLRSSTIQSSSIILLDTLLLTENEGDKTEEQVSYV
Chain of Cytochrome P450 3A4 (P08684 whole entry): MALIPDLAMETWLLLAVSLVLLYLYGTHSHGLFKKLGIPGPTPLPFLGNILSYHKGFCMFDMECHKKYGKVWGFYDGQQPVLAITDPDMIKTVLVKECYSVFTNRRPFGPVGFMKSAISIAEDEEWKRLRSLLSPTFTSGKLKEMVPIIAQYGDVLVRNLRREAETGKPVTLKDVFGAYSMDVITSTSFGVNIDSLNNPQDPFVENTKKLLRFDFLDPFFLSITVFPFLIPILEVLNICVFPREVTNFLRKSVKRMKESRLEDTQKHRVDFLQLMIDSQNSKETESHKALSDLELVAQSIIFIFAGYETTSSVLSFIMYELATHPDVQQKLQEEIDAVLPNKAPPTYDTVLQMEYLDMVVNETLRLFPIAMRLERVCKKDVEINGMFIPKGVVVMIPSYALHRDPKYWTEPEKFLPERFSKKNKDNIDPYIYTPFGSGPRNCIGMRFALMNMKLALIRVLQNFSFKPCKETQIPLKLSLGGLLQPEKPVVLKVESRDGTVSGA
Chain of Urotensin-2 receptor (Homo sapiens) (Q9UKP6 whole entry): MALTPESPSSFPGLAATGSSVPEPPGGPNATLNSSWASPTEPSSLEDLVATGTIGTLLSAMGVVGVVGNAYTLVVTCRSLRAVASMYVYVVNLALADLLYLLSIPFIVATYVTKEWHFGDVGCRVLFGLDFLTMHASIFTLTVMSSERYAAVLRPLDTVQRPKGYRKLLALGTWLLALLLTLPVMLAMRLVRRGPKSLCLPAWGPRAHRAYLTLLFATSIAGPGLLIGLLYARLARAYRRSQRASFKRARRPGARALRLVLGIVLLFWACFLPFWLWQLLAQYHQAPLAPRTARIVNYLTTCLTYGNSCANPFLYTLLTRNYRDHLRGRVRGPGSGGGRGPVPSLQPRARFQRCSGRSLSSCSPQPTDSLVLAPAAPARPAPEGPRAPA

Activity [1]: inactive
Activity [2]: inactive
fraction unbound at 4 h, 10 µM [4]: 0.48
Vmax [5]: 4.7 pmol/min
Km at 1 h, up to 1000 µM [6]: 15 µM
inhibition (INH) [7]: Not Active
inhibition (INH) [8]: Not Active
inhibition (INH) [9]: Not Active
clearance [10]: 21 mL/min/kg
AUClast/dose [11]: 37 µM·h
half-life [12]: 18.8 h
AUC(0-t) [13]: 17500 ng·h/mL
concentration at 24 h [14]: 490 ng/mL
concentration at 24 h [15]: 570 ng/mL
Activity [16]: inactive
Activity [17]: inactive
Activity [18]: inactive
Activity [19]: inactive
Activity [20]: inactive
Activity [21]: inactive
Activity [22]: inactive
Activity [23]: inactive
Activity [24]: inactive
Activity [25]: inactive
Activity [26]: inactive
Activity [27]: inactive
Activity [28]: inactive
Activity [29]: inactive
Activity [30]: inactive
Activity [31]: inactive
Activity [32]: inactive
Activity [33]: inactive
Activity [34]: inactive
Activity [35]: inactive
Activity [36]: inactive
Structure (SMILES): CS(=O)(=O)c1ccc(Oc2cc(F)cc(C#N)c2)c2c1[C@H](O)[C@H](F)[C@@H]2F [BELZUTIFAN]
Activity [3]: Non-Toxic
